Data on eleven compounds can be found in patent US20260248927A1, “TARGETED PROTEIN DEGRADATION USING BIFUNCTIONAL COMPOUNDS THAT BIND UBIQUITIN LIGASE AND TARGET MCL-1 PROTEIN” (Captor Therapeutics S.A., priority 2022, published 2026).

For data set [1], the target named is [MCL-1]-[compound of formula (I)]—[CRBN/DDB1] (Homo sapiens, UniProt Q07820+Q96SW2). Nature of the data set: HTRF ternary complex formation assay. Conditions: hMcl-1 and CRBN, 180 min at 25° C.; read-out: HTRF ternary complex Average pEC50 by molecule (converted). The data set is classed as binding. The procedure:
The effect of the bifunctional compounds of the invention on the formation of a ternary complex composed of [MCL-1]-[compound of formula (I)]—[CRBN/DDB1] was investigated with HTRF ternary complex assay.
Mix of protein solution was prepared: • 48 nM hMcl-1 and 105.6 nM CRBN were prepared in PPI Europium detection buffer with 2 mM DTT. • Acceptor and donor stock solutions were diluted 100 times in PPI Europium detection buffer. Equal volumes of both reagents were mixed. Finally giving 3 nM of Streptavidin-Eu cryptate ([…]) and 6.67 nM of Anti-6×his-d2 ([…]).
5 μl of protein mix was dispensed to all wells. The tested compounds in dose-response were dispensed onto a white 384-well low volume plate (Greiner, 784075). DMSO was backfilled to all wells, resulting in a final DMSO content of 0.5%. Wells containing only DMSO served as a background. Next, 5 μl of solution with donor and acceptor was added to the wells.
The plate was sealed with transparent film and shaken using a VibroTurbulator for 60 sec at level 3. The plate was then spun down shortly (10 s, 1000 rcf) and incubated at 25° C. for 180 min.
The read-out was performed with plate reader (Pherastar, BMG Labtech) in time resolved fluorescence mode. Filterset: TR 337 665 620.
The results were analyzed as follows: • 1) an average of fluorescence for background signal was calculated and used as a negative control; • 2) raw fluorescence values for tested compounds were normalized against negative controls; • 3) bell shape curve was fitted to a gaussian distribution using a non-linear least squares Gauss-Newton algorithm; • 4) EC50 and pEC50 values were determined.
In general terms: In TR-FRET formats the signal depends on donor and acceptor labels being close together.

A short description of data set [2]: Cell viability assay (CellTiter-Glo), ARH-77. The data set is classed as cell-based. Conditions: human, ARH-77 cells (lymphoblast-like, MCL-1 independent), ARH-77, 24 hours, 1% FBS, read-out: Average pCC50 by molecule ARH-77 (converted). The source says:
(§1) The effect of various compounds of the invention on the viability of MV4-11 and ARH-77 cell lines was investigated, using the CTG protocol described below.
(§2) MV4-11 cell lines are derived from acute myeloid leukaemia and it is described in the literature as a MCL-1 dependent cell line, as opposed to lymphoblast-like ARH-77 cell line, which is described as independent of MCL-1 (Tron A E et al. Nat Commun. 2018; 9: 5341; Caenepeel S et al. Cancer Discov. 2018 December; 8(12): 1582-1597).
(§3) Cells (MV4-11 or ARH-77) were seeded on […] in a growth medium with 1% FBS. Next, compound stocks were pre-diluted in DMSO and added directly to the cell culture media (final DMSO concentration: 0.5%). Compound concentrations used in this assay: 1/3 dilutions starting at 30 μM (9 to 12 points). After 24 hours of incubation, cell viability was evaluated using CellTiter-Glo Luminescent Cell Viability Assay (Promega, cat #G7572). The luminescence signal was measured using a CLARIOstar Plus Multi-Mode Microplate Reader (574-590 nm).
(§4) Results were normalized to DMSO control. Collected data were analyzed using GraphPad Prism to calculate pCC50 values.

Data set [3] relates to MV4-11 cells. The data set is described as follows: Cell viability assay (CellTiter-Glo), MV4-11. In kind it is cell-based. Conditions: Homo sapiens, MV4-11, 24 hours, 1% FBS, read-out: Average pCC50 by molecule MV4-11 (converted).
Description: as §1, §2, §3, §4

Each structure is given as a SMILES string.

Sequence of [MCL-1]-[compound of formula (I)]—[CRBN/DDB1] (Q07820 whole entry): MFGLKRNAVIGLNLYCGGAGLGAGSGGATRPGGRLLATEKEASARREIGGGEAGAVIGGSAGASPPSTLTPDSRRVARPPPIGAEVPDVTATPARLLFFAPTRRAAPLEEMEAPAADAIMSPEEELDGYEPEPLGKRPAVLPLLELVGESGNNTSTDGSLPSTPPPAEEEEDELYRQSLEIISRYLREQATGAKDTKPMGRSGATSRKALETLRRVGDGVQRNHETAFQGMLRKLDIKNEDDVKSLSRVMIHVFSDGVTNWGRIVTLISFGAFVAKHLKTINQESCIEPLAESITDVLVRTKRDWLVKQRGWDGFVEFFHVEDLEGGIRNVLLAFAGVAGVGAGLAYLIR
Sequence of [MCL-1]-[compound of formula (I)]—[CRBN/DDB1] (Q96SW2 whole entry): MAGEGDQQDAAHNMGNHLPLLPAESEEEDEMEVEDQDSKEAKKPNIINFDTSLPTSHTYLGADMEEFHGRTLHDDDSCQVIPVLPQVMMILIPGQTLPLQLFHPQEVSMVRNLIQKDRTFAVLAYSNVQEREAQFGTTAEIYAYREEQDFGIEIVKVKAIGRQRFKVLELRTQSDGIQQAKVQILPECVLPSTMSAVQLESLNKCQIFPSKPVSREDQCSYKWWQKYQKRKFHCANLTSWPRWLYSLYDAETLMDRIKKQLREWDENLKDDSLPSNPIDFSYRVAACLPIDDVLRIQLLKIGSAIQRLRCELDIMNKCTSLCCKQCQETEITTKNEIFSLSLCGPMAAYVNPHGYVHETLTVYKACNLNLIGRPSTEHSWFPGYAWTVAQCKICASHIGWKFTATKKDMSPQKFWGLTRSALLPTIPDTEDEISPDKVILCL
Sequence of [MCL-1]-[compound of formula (I)]—[CRBN/DDB1] (Q16531 whole entry partner): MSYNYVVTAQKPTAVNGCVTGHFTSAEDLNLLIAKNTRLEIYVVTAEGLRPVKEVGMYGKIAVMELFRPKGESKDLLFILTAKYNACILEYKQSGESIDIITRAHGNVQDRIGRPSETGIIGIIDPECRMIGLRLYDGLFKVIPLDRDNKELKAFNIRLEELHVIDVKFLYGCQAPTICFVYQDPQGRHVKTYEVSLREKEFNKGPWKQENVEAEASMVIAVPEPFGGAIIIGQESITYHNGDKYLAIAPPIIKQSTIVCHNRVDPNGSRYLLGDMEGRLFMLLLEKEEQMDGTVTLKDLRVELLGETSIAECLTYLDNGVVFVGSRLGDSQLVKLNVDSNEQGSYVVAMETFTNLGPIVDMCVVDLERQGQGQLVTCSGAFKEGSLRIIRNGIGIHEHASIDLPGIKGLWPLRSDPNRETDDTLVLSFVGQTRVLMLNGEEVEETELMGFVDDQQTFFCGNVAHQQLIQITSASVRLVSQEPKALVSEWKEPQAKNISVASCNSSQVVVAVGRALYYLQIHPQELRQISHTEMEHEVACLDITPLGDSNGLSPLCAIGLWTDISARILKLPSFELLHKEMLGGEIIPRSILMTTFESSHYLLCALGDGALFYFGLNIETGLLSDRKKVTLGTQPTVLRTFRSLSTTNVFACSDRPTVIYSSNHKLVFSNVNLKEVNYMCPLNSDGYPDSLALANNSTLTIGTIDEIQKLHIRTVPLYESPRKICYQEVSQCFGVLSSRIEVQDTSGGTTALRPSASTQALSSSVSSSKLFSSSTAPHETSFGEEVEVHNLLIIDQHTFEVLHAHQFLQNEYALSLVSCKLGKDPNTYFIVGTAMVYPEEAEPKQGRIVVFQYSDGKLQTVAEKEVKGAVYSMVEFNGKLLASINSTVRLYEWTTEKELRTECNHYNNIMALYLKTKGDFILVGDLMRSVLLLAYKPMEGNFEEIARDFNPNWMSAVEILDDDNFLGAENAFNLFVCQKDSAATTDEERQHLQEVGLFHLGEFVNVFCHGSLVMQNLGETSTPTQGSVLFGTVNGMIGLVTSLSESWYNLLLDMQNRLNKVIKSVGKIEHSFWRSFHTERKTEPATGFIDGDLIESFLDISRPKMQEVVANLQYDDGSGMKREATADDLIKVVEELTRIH

In the case of `Cc1nc2c(OCC(=O)N3CCN(CCn4c(C(=O)O)c(CCCOc5cccc6cc(F)ccc56)c5ccc(Cl)c(-c6c(C)nn(C)c6C)c54)CC3)cccc2cc1C1CCC(=O)NC1=O` (stereo not drawn) [Compound 4, 6-Chloro-1-{2-[4-(2-{[3-(2,6-dioxopiperidin-3-yl)-2-methylquinolin-8-yl]oxy}acetyl)piperazin-1-yl]ethyl}-3-{3-[(6-fluoronaphthalen-1-yl)oxy]propyl}-7-(1,3,5-trimethyl-1H-pyrazol-4-yl)-1H-indole-2-carboxylic acid], the EC50 in data set [1] is < 100 nM. Besides, in data set [2], the CC50 at 24 h is > 10000 nM. Also, in data set [3], the CC50 is < 316 nM.
Regarding `Cc1nc2cc(C(=O)NCC(=O)N3CCN(CCn4c(C(=O)O)c(CCCOc5cccc6cc(F)ccc56)c5ccc(Cl)c(-c6c(C)nn(C)c6C)c54)CC3)ccc2cc1C1CCC(=O)NC1=O` (stereo not drawn) [Compound 6, 6-Chloro-1-(2-(4-((3-(2,6-dioxopiperidin-3-yl)-2-methylquinoline-7-carbonyl)glycyl)piperazin-1-yl)ethyl)-3-(3-((6-fluoronaphthalen-1-yl)oxy)propyl)-7-(1,3,5-trimethyl-1H-pyrazol-4-yl)-1H-indole-2-carboxylic acid], in data set [1], the EC50 was < 100 nM. The CC50 at 24 h in data set [2] was > 10000 nM. Further, the CC50 in data set [3] is < 100 nM.
Consider `COc1ccc2c(c1OCC(=O)N1CCN(CCn3c(C(=O)O)c(CCCOc4cccc5cc(F)ccc45)c4ccc(Cl)c(-c5c(C)nn(C)c5C)c43)CC1)CN(C1CCC(=O)NC1=O)C2=O` (stereo not drawn) [Compound 7, 6-Chloro-1-{2-[4-(2-{[2-(2,6-dioxopiperidin-3-yl)-5-methoxy-1-oxo-2,3-dihydro-1H-isoindol-4-yl]oxy}acetyl)piperazin-1-yl]ethyl}-3-{3-[(6-fluoronaphthalen-1-yl)oxy]propyl}-7-(1,3,5-trimethyl-1H-pyrazol-4-yl)-1H-indole-2-carboxylic acid], for which the EC50 in data set [1] was < 100 nM. For the same compound, the CC50 at 24 h in data set [2] is > 10000 nM. Besides, the CC50 in data set [3] was < 100 nM.
As to `Cc1nn(C)c(C)c1-c1c(Cl)ccc2c(CCCOc3cccc4cc(F)ccc34)c(C(=O)O)n(CCN3CCN(C(=O)COc4c(N(C)C)ccc5c4CN(C4CCC(=O)NC4=O)C5=O)CC3)c12` (stereo not drawn) [Compound 10, 6-Chloro-1-(2-(4-(2-((5-(dimethylamino)-2-(2,6-dioxopiperidin-3-yl)-1-oxoisoindolin-4-yl)oxy)acetyl)piperazin-1-yl)ethyl)-3-(3-((6-fluoronaphthalen-1-yl)oxy)propyl)-7-(1,3,5-trimethyl-1H-pyrazol-4-yl)-1H-indole-2-carboxylic acid], the EC50 in data set [1] is < 316 nM. Besides, the CC50 at 24 h in data set [2] was > 10000 nM. In addition, the CC50 in data set [3] was < 316 nM.
As for `Cc1nn(C)c(C)c1-c1c(Cl)ccc2c(CCCOc3cccc4cc(F)ccc34)c(C(=O)O)n(CCN3CCN(C(=O)COc4cc(N)cc5c4CN(C4CCC(=O)NC4=O)C5=O)CC3)c12` (stereo not drawn) [Compound 11, 1-{2-[4-(2-{[6-Amino-2-(2,6-dioxopiperidin-3-yl)-1-oxo-2,3-dihydro-1H-isoindol-4-yl]oxy}acetyl)piperazin-1-yl]ethyl}-6-chloro-3-{3-[(6-fluoronaphthalen-1-yl)oxy]propyl}-7-(1,3,5-trimethyl-1H-pyrazol-4-yl)-1H-indole-2-carboxylic acid], the EC50 in data set [1] was < 316 nM. In data set [2], the CC50 at 24 h is > 10000 nM. Further, the CC50 in data set [3] is < 100 nM.
With `CNc1cc(OCC(=O)N2CCN(CCn3c(C(=O)O)c(CCCOc4cccc5cc(F)ccc45)c4ccc(Cl)c(-c5c(C)nn(C)c5C)c43)CC2)c2c(c1)C(=O)N(C1CCC(=O)NC1=O)C2` (stereo not drawn) [Compound 12, 6-Chloro-1-(2-(4-(2-((2-(2,6-dioxopiperidin-3-yl)-6-(methylamino)-1-oxoisoindolin-4-yl)oxy)acetyl)piperazin-1-yl)ethyl)-3-(3-((6-fluoronaphthalen-1-yl)oxy)propyl)-7-(1,3,5-trimethyl-1H-pyrazol-4-yl)-1H-indole-2-carboxylic acid], the EC50 in data set [1] is < 316 nM. Moreover, in data set [2], the CC50 at 24 h is > 31600 nM. Besides, the CC50 in data set [3] was < 100 nM.
Taken in the same sequence, the figures for `Cc1nn(C)c(C)c1-c1c(Cl)ccc2c(CCCOc3cccc4cc(F)ccc34)c(C(=O)O)n(CCN3CCN(C(=O)COc4cc(N5CCCCC5)cc5c4CN(C4CCC(=O)NC4=O)C5=O)CC3)c12` (stereo not drawn) [Compound 14, 6-Chloro-1-{2-[4-(2-{[2-(2,6-dioxopiperidin-3-yl)-1-oxo-6-(piperidin-1-yl)-2,3-dihydro-1H-isoindol-4-yl]oxy}acetyl)piperazin-1-yl]ethyl}-3-{3-[(6-fluoronaphthalen-1-yl)oxy]propyl}-7-(1,3,5-trimethyl-1H-pyrazol-4-yl)-1H-indole-2-carboxylic acid] were < 31.6 nM, > 3160 nM and < 316 nM.
In the case of `Cc1nn(C)c(C)c1-c1c(Cl)ccc2c(CCCOc3cccc4cc(F)ccc34)c(C(=O)O)n(CCN3CCN(C(=O)COc4cccc5c4C(C)N(C4CCC(=O)NC4=O)C5=O)CC3)c12` (stereo not drawn) [Compound 15, 6-Chloro-1-{2-[4-(2-{[2-(2,6-dioxopiperidin-3-yl)-3-methyl-1-oxo-2,3-dihydro-1H-isoindol-4-yl]oxy}acetyl)piperazin-1-yl]ethyl}-3-{3-[(6-fluoronaphthalen-1-yl)oxy]propyl}-7-(1,3,5-trimethyl-1H-pyrazol-4-yl)-1H-indole-2-carboxylic acid], the EC50 in data set [1] is < 316 nM. Also, the CC50 at 24 h in data set [2] is > 10000 nM. In addition, in data set [3], the CC50 is < 100 nM.
In the case of `Cc1nn(C)c(C)c1-c1c(Cl)ccc2c(CCCOc3cccc4cc(F)ccc34)c(C(=O)O)n(CCN3CCN(C(=O)COc4ccc5c6c(cccc46)C(=O)N5C4CCC(=O)NC4=O)CC3)c12` (stereo not drawn) [Compound 21, 6-Chloro-1-(2-(4-(2-((1-(2,6-dioxopiperidin-3-yl)-2-oxo-1,2-dihydrobenzo[cd]indol-6-yl)oxy)acetyl)piperazin-1-yl)ethyl)-3-(3-((6-fluoronaphthalen-1-yl)oxy)propyl)-7-(1,3,5-trimethyl-1H-pyrazol-4-yl)-1H-indole-2-carboxylic acid], in data set [1], the EC50 is < 31.6 nM. Moreover, the CC50 at 24 h in data set [2] is > 10000 nM. Also, the CC50 in data set [3] is < 316 nM.
Turning to `Cc1nn(C)c(C)c1-c1c(Cl)ccc2c(CCCOc3cccc4cc(F)ccc34)c(C(=O)O)n(CCN3CCN(C(=O)COc4ccc5c(c4)n(C)c(=O)n5C4CCC(=O)NC4=O)CC3)c12` (stereo not drawn) [Compound 22, 6-Chloro-1-(2-(4-(2-((1-(2,6-dioxopiperidin-3-yl)-3-methyl-2-oxo-2,3-dihydro-1H-benzo[d]imidazol-5-yl)oxy)acetyl)piperazin-1-yl)ethyl)-3-(3-((6-fluoronaphthalen-1-yl)oxy)propyl)-7-(1,3,5-trimethyl-1H-pyrazol-4-yl)-1H-indole-2-carboxylic acid], in data set [1], the EC50 is < 100 nM. In addition, the CC50 at 24 h in data set [2] is > 31600 nM. The CC50 in data set [3] was < 31.6 nM.
Taken in the same sequence, the figures for `Cc1nn(C)c(C)c1-c1c(Cl)ccc2c(CCCOc3cccc4cc(F)ccc34)c(C(=O)O)n(CCN3CCN(C(=O)COc4cccc5c4n(C)c(=O)n5C4CCC(=O)NC4=O)CC3)c12` (stereo not drawn) [Compound 23, 6-Chloro-1-(2-(4-(2-((1-(2,6-dioxopiperidin-3-yl)-3-methyl-2-oxo-2,3-dihydro-1H-benzo[d]imidazol-4-yl)oxy)acetyl)piperazin-1-yl)ethyl)-3-(3-((6-fluoronaphthalen-1-yl)oxy)propyl)-7-(1,3,5-trimethyl-1H-pyrazol-4-yl)-1H-indole-2-carboxylic acid] were < 316 nM, > 10000 nM and < 31.6 nM.
